Reference: patent US8623324B2, “Luminescent dyes with a water-soluble intramolecular bridge and their biological conjugates” (AAT Bioquest Inc., priority 2010, dated 2014)

System: goat anti-rabbit IgG (GAR)
Assay: Protein precipitation / water solubility of dye-protein conjugates at high dye/protein ratio
Type: physicochemical
From the text: FIG. 1. […] Their PBS solutions are adjusted to have the same absorption of OD=0.05 at 600 nm. The PBS solutions are excited at 600 nm, and the emissions are scanned from 620 to 800 nm.
FIG. 2. […] Their PBS solutions are adjusted to have the same absorption of OD=0.05 at 600 nm. The PBS solutions are excited at 600 nm, and the emissions are scanned from 620 to 800 nm.
FIG. 3. […] Their PBS solutions are adjusted to have the same absorption of OD=0.1 at 450 nm. The PBS solutions are excited at 460 nm, and the emissions are scanned from 470 to 650 nm.
The typical method for protein conjugation with succinimidyl esters of the invention is as follows. Variations in ratios of dye to protein, protein concentration, time, temperature, buffer composition and other variables that are well known in the art are possible that still yield useful conjugates. A solution of the protein is prepared at about 10 mg/mL in 0.1M sodium bicarbonate. The labeling reagents are dissolved in a suitable solvent such as DMF or DMSO at about 10 mg/mL. Water is a suitable solvent for many dyes of the invention. Predetermined amounts of the labeling reagents are added to the protein solutions with stiffing. A molar ratio of 10 equivalents of dye to 1 equivalent of protein is typical, though the optimal amount varies with the particular labeling reagent, the protein being labeled and the protein's concentration, and is determined empirically.

[1] = ratio of dye/protein larger than 8
[2] = ratio of dye/protein larger than 10

| SMILES | protein precipitation / water solubility of dye-protein conjugate [1] | protein precipitation / water solubility of dye-protein conjugate [2] |
| --- | --- | --- |
| CC12CCCCCC(=O)NCCCCCNC(=O)C(CS(=O)(=O)O)NC(=O)C(CS(=O)(=O)O)NC(=O)C(CS(=O)(=O)O)NC(=O)CCCCCC3(C)/C(=C/C=C/C=C/C1=[N+](CCCCCC(=O)ON1C(=O)CCC1=O)c1ccc(S(=O)(=O)O)cc12)N(CCCCCC(=O)ON1C(=O)CCC1=O)c1ccc(S(=O)(=O)O)cc13 (stereo not shown) [Compound 39] | still water soluble |  |
| CC1(C)C2=[N+](CCCCCC(=O)NC(C(=O)NCCCCCC(=O)ON3C(=O)CCC3=O)CCCCNC(=O)CCCCCC3(C)/C(=C/C=C/C=C/2)N(CCCS(=O)(=O)O)c2ccc(S(=O)(=O)O)cc23)c2ccc(S(=O)(=O)[O-])cc21 (stereo not shown) [Compound 133] |  | causes protein to precipitate |
| CC1(C)C2=[N+](CCCCCC(=O)NC(Cc3ccc(S(=O)(=O)O)s3)C(=O)NCCCCC(C(=O)NCCCCCC(=O)ON3C(=O)CCC3=O)NC(=O)C(Cc3ccc(S(=O)(=O)[O-])s3)NC(=O)CCCCCC3(C)/C(=C/C=C/C=C/2)N(CCCS(=O)(=O)O)c2ccc(S(=O)(=O)O)cc23)c2ccc(S(=O)(=O)O)cc21 (stereo not shown) [Compound 134] |  | still water soluble |
| CC12CCCCCC(=O)NCCCCCCCCCCCCNC(=O)CCCCCC3(C)/C(=C/C=C/C=C/C1=[N+](CCCCCC(=O)ON1C(=O)CCC1=O)c1ccc(S(=O)(=O)O)cc12)N(CCCCCC(=O)ON1C(=O)CCC1=O)c1ccc(S(=O)(=O)O)cc13 (stereo not shown) [Compound 136] | causes protein to precipitate |  |
